# The source made the active and inactive calls. The rule behind the calls is not given here.
# System: CCRIS mutagenicity, Ames/micronucleus/aberration tests
# Experiment: CCRIS mutagenicity studies
# [1] = Test System: AMES SALMONELLA TYPHIMURIUM, Strain/Indicator: TA100, Metabolic Activation: NONE, Method: STANDARD PLATE
# [2] = Test System: AMES SALMONELLA TYPHIMURIUM, Strain/Indicator: TA1535, Metabolic Activation: NONE, Method: PREINCUBATION
structure (smiles),measurement,setting,value
CCCCOC(C)=O,mutagenic call,"Test System: AMES SALMONELLA TYPHIMURIUM, Strain/Indicator: TA97, Metabolic Activation: HAMSTER, LIVER, S-9, AROCLOR 1254 (10 OR 30%), Method: PREINCUBATION",inactive; negative
same,mutagenic call,"Test System: AMES SALMONELLA TYPHIMURIUM, Strain/Indicator: TA97, Metabolic Activation: NONE, Method: PREINCUBATION",inactive; negative
same,mutagenic call,"Test System: AMES SALMONELLA TYPHIMURIUM, Strain/Indicator: TA97, Metabolic Activation: RAT, LIVER, S-9, AROCLOR 1254 (10 OR 30%), Method: PREINCUBATION",inactive; negative
same,mutagenic call,"Test System: AMES SALMONELLA TYPHIMURIUM, Strain/Indicator: TA98, Metabolic Activation: HAMSTER, LIVER, S-9, AROCLOR 1254 (10 OR 30%), Method: PREINCUBATION",inactive; negative
same,mutagenic call,"Test System: AMES SALMONELLA TYPHIMURIUM, Strain/Indicator: TA98, Metabolic Activation: RAT, LIVER, S-9, AROCLOR 1254 (10 OR 30%), Method: PREINCUBATION",inactive; negative
same,mutagenic call,"Test System: AMES SALMONELLA TYPHIMURIUM, Strain/Indicator: TA98, Metabolic Activation: RAT, LIVER, S-9, KC 500, Method: PREINCUBATION",inactive; negative
same,mutagenic call,"Test System: AMES SALMONELLA TYPHIMURIUM, Strain/Indicator: TA98, Metabolic Activation: RAT, LIVER, S-9, PHENOBARBITAL AND BETA-NAPHTHOFLAVONE, Method: PREINCUBATION",inactive; negative
same,mutagenic call,"Test System: AMES SALMONELLA TYPHIMURIUM, Strain/Indicator: TA100, Metabolic Activation: HAMSTER, LIVER, S-9, AROCLOR 1254 (10 OR 30%), Method: PREINCUBATION",inactive; negative
same,mutagenic call,"Test System: AMES SALMONELLA TYPHIMURIUM, Strain/Indicator: TA100, Metabolic Activation: RAT, LIVER, S-9, AROCLOR 1254 (10 OR 30%), Method: PREINCUBATION",inactive; negative
same,mutagenic call,"Test System: AMES SALMONELLA TYPHIMURIUM, Strain/Indicator: TA100, Metabolic Activation: RAT, LIVER, S-9, KC 500, Method: PREINCUBATION",inactive; negative
same,mutagenic call,"Test System: AMES SALMONELLA TYPHIMURIUM, Strain/Indicator: TA100, Metabolic Activation: RAT, LIVER, S-9, PHENOBARBITAL AND BETA-NAPHTHOFLAVONE, Method: PREINCUBATION",inactive; negative
same,mutagenic call,"Test System: AMES SALMONELLA TYPHIMURIUM, Strain/Indicator: TA102, Metabolic Activation: NONE, Method: PREINCUBATION",inactive; negative
same,mutagenic call,"Test System: AMES SALMONELLA TYPHIMURIUM, Strain/Indicator: TA102, Metabolic Activation: RAT, LIVER, S-9, PHENOBARBITAL AND BETA-NAPHTHOFLAVONE, Method: PREINCUBATION",inactive; negative
same,mutagenic call,"Test System: AMES SALMONELLA TYPHIMURIUM, Strain/Indicator: TA104, Metabolic Activation: NONE, Method: PREINCUBATION",inactive; negative
same,mutagenic call,"Test System: AMES SALMONELLA TYPHIMURIUM, Strain/Indicator: TA104, Metabolic Activation: RAT, LIVER, 2-9, PHENOBARBITAL AND BETA-NAPHTHOFLAVONE, Method: PREINCUBATION",inactive; negative
same,mutagenic call,"Test System: AMES SALMONELLA TYPHIMURIUM, Strain/Indicator: TA104, Metabolic Activation: RAT, LIVER, S-9, PHENOBARBITAL AND BETA-NAPHTHOFLAVONE, Method: PREINCUBATION",inactive; negative
same,mutagenic call,"Test System: AMES SALMONELLA TYPHIMURIUM, Strain/Indicator: TA1535, Metabolic Activation: HAMSTER, LIVER, S-9, AROCLOR 1254 (10 OR 30%), Method: PREINCUBATION",inactive; negative
same,mutagenic call,"Test System: AMES SALMONELLA TYPHIMURIUM, Strain/Indicator: TA1535, Metabolic Activation: RAT, LIVER, S-9, AROCLOR 1254 (10 OR 30%), Method: PREINCUBATION",inactive; negative
same,mutagenic call,"Test System: AMES SALMONELLA TYPHIMURIUM, Strain/Indicator: TA1535, Metabolic Activation: RAT, LIVER, S-9, KC 500, Method: PREINCUBATION",inactive; negative
same,mutagenic call,"Test System: AMES SALMONELLA TYPHIMURIUM, Strain/Indicator: TA1535, Metabolic Activation: RAT, LIVER, S-9, PHENOBARBITAL AND BETA-NAPHTHOFLAVONE, Method: PREINCUBATION",inactive; negative
same,mutagenic call,"Test System: AMES SALMONELLA TYPHIMURIUM, Strain/Indicator: TA1537, Metabolic Activation: HAMSTER, LIVER, S-9, AROCLOR 1254 (30%), Method: PREINCUBATION",inactive; negative
same,mutagenic call,"Test System: AMES SALMONELLA TYPHIMURIUM, Strain/Indicator: TA1537, Metabolic Activation: RAT, LIVER, S-9, AROCLOR 1254 (30%), Method: PREINCUBATION",inactive; negative
same,mutagenic call,"Test System: AMES SALMONELLA TYPHIMURIUM, Strain/Indicator: TA1537, Metabolic Activation: RAT, LIVER, S-9, KC 500, Method: PREINCUBATION",inactive; negative
same,mutagenic call,"Test System: AMES SALMONELLA TYPHIMURIUM, Strain/Indicator: TA1537, Metabolic Activation: RAT, LIVER, S-9, PHENOBARBITAL AND BETA-NAPHTHOFLAVONE, Method: PREINCUBATION",inactive; negative
same,mutagenic call,"Test System: AMES SALMONELLA TYPHIMURIUM, Strain/Indicator: TA1538, Metabolic Activation: NONE, Method: PREINCUBATION",inactive; negative
same,mutagenic call,"Test System: AMES SALMONELLA TYPHIMURIUM, Strain/Indicator: TA1538, Metabolic Activation: RAT, LIVER, S-9, KC 500, Method: PREINCUBATION",inactive; negative
same,mutagenic call,"Test System: E. COLI, Strain/Indicator: WP2UVRA/PKM101, Metabolic Activation: NONE, Method: PREINCUBATION",inactive; negative
same,mutagenic call,"Test System: E. COLI, Strain/Indicator: WP2UVRA/PKM101, Metabolic Activation: RAT, LIVER, S-9, PHENOBARBITAL AND BETA-NAPHTHOFLAVONE, Method: PREINCUBATION",inactive; negative
same,mutagenic call,"Test System: E. COLI, Strain/Indicator: WP2 UVRA, Metabolic Activation: NONE, Method: PREINCUBATION",inactive; negative
same,mutagenic call,"Test System: E. COLI, Strain/Indicator: WP2UVRA, Metabolic Activation: NONE, Method: PREINCUBATION",inactive; negative
same,mutagenic call,"Test System: E. COLI, Strain/Indicator: WP2 UVRA, Metabolic Activation: RAT, LIVER, S-9, KC 500, Method: PREINCUBATION",inactive; negative
same,mutagenic call,"Test System: E. COLI, Strain/Indicator: WP2UVRA, Metabolic Activation: RAT, LIVER, S-9, PHENOBARBITAL AND BETA-NAPHTHOFLAVONE, Method: PREINCUBATION",inactive; negative
c1ccc(-c2ccc(CC3CO3)cc2)cc1 (stereo not given),mutagenic call,"Test System: AMES SALMONELLA TYPHIMURIUM, Strain/Indicator: TA100, Metabolic Activation: NONE, Method: PREINCUBATION",active; positive
same,mutagenic call,[1],active; positive
same,mutagenic call,[2],active; positive
same,mutagenic call,"Test System: AMES SALMONELLA TYPHIMURIUM, Strain/Indicator: TA1535, Metabolic Activation: NONE, Method: STANDARD PLATE",active; positive
CC(C)N(CC(O)c1ccc(NS(C)(=O)=O)cc1)N=O (stereo not given),mutagenic call,"Test System: UDS HUMAN HEPATOCYTES, Strain/Indicator: THY INCORP, Metabolic Activation: NONE, Method: AUTORADIOGRAPHY",active; positive
same,mutagenic call,"Test System: UDS RAT HEPATOCYTES, Strain/Indicator: THY INCORP, Metabolic Activation: NONE, Method: AUTORADIOGRAPHY",active; positive
CN(N)C=O,mutagenic call,[2],inactive; negative
same,mutagenic call,"Test System: AMES SALMONELLA TYPHIMURIUM, Strain/Indicator: TA1535, Metabolic Activation: RAT, LIVER, S-9, AROCLOR 1254, Method: PREINCUBATION",inactive; negative
same,mutagenic call,"Test System: AMES SALMONELLA TYPHIMURIUM, Strain/Indicator: TA1537, Metabolic Activation: NONE, Method: PREINCUBATION",inactive; negative
same,mutagenic call,"Test System: AMES SALMONELLA TYPHIMURIUM, Strain/Indicator: TA1537, Metabolic Activation: RAT, LIVER, S-9, AROCLOR 1254, Method: PREINCUBATION",inactive; negative
CC(=O)N(O)c1ccc(Cl)c(Cl)c1,mutagenic call,"Test System: AMES SALMONELLA TYPHIMURIUM, Strain/Indicator: TA97, Metabolic Activation: NONE, Method: STANDARD PLATE",inactive; negative
same,mutagenic call,"Test System: AMES SALMONELLA TYPHIMURIUM, Strain/Indicator: TA97, Metabolic Activation: RAT, LIVER, S-9, AROCLOR 1254, Method: STANDARD PLATE",inactive; negative
same,mutagenic call,"Test System: AMES SALMONELLA TYPHIMURIUM, Strain/Indicator: TA98, Metabolic Activation: NONE, Method: STANDARD PLATE",inactive; negative
same,mutagenic call,"Test System: AMES SALMONELLA TYPHIMURIUM, Strain/Indicator: TA98, Metabolic Activation: RAT, LIVER, S-9, AROCLOR 1254, Method: STANDARD PLATE",inactive; negative
same,mutagenic call,[1],inactive; negative
same,mutagenic call,"Test System: AMES SALMONELLA TYPHIMURIUM, Strain/Indicator: TA100, Metabolic Activation: RAT, LIVER, S-9, AROCLOR 1254, Method: STANDARD PLATE",inactive; negative
same,mutagenic call,"Test System: AMES SALMONELLA TYPHIMURIUM, Strain/Indicator: TA104, Metabolic Activation: NONE, Method: STANDARD PLATE",inactive; negative
same,mutagenic call,"Test System: AMES SALMONELLA TYPHIMURIUM, Strain/Indicator: TA104, Metabolic Activation: RAT, LIVER, S-9, AROCLOR 1254, Method: STANDARD PLATE",inactive; negative

# Source: PubChem BioAssay AID1259407 (Chemical Carcinogenesis Research Information System (CCRIS), 2018)
